Values quoted from earlier work in patent US20250275973A1, “USE OF ALC1 INHIBITORS AND SYNERGY WITH PARPI” (EISBACH BIO GMBH, priority 2022, published 2025).

Test system: GFP-tagged PARP1 and PARP2
Conditions: U2OS cells treated with PARPi; background section

Row | Structure (SMILES) | retention/recruitment of GFP-tagged PARP1 and PARP2 at induced DNA lesions
1 | Cn1ncnc1[C@H]1c2n[nH]c(=O)c3cc(F)cc(c23)N[C@@H]1c1ccc(F)cc1 [talazoparib] | enhanced retention
2 | C[C@]1(c2nc3c(C(N)=O)cccc3[nH]2)CCCN1 [veliparib] | overall less PARP1/PARP2 recruitment
